Results on 2 molecules are retold here after patent publication US12319655B2, “RAF kinase inhibitors and methods of use thereof” (Deciphera Pharmaceuticals, LLC, priority 2021, dated 2025).

pIC50: −log10 of the molar value. Some results are limits rather than exact numbers.

For test [1], the target named is A-Raf kinase (SEQ. ID No: 1) (Homo sapiens (Human), UniProt P10398, Y301D/Y302D). Briefly: Biochemical Assay for A-Raf (2). Particulars: Table J, biochemical assay (2); read-out: ARAF (2). On the procedure: Biochemical Assay for A-Raf (2)
Activity of A-Raf kinase (SEQ. ID No: 1) was determined spectroscopically using a coupled pyruvate kinase/lactate dehydrogenase assay that continuously monitors the ATP hydrolysis-dependent oxidation of NADH (e.g., Schindler et al., Science, 2000, 289, 1938-1942). Assays were conducted in 384-well plates (25 μL final volume) using 20 nM A-Raf (Eurofins), 1.5 units pyruvate kinase, 2.1 units lactate dehydrogenase, 1 mM phosphoenol pyruvate, 0.7 mM NADH, 100 nM MEK (SignalChem), and 1 mM ATP in assay buffer (100 mM Tris, pH 7.5, 15 mM MgCl2, 0.5 mM DTT, 0.1% octyl-glucoside, 0.002% (w/v) BSA, and 0.002% Triton X-100). Inhibition of A-Raf was measured by adding serial diluted test compound (final assay concentration of 1% DMSO). A decrease in absorption at 340 nm was monitored hourly for 4 h at 30° C. on a multi-mode microplate reader (BioTek). The reaction rate was calculated using the 3 to 4 h time frame. The reaction rate at each concentration of compound was converted to percent inhibition using controls (i.e., reaction with no test compound and reaction with a known inhibitor) and IC50 values were calculated by fitting a four-parameter sigmoidal curve to the data using Prism (GraphPad software).

The test system of a further test is WM3928 cells. The experiment in a line: WM3928 Cell Proliferation Assay (2). The format is cell-based. Here is the method:
WM3928 Cell Proliferation Assay (2)
WM3928 cells (#WM3928-01-0001) are obtained from Rockland Immunochemicals Inc (Gilbertsville, PA). Briefly, cells were grown in MCDB 153 medium (Sigma, #M7403, St. Louis, MO) supplemented with 20% Leibovitz's L-15 (ThermoFisher #11415-064, Waltham, MA), 2% heat inactivated fetal bovine serum (ThermoFisher, #A3840001, Waltham, MA), 5 μg/mL Insulin (Bovine Pancreas) (Sigma, #10516, St. Louis, MO), 1.68 mM Calcium Chloride (Sigma, #C-34006, St. Louis, MO) and 1% Penicillin/Streptomycin/L-Glutamine (ThermoFisher #10378016, Waltham, MA) at 37° C., 5% CO2, and 95% humidity. Cells are expanded until reaching 70-95% confluency at which point they are sub-cultured or harvested for assay use. Using the Beckman Coulter Echo 650, a serial dilution of test compound is dispensed into a 384-well black clear bottom plate in triplicate. Seven hundred fifty cells are added per well in 50 μL complete growth medium in the 384-well plate. Plates are incubated for 67-72 hours at 37° C., 5% CO2, and 95% humidity. At the end of the incubation, 10 μL of a 440 μM solution of resazurin (Sigma, #199303, St. Louis, MO) in PBS is added to each well of the plate and plates are incubated for an additional 3-6 hours at 37° C., 5% CO2, and 95% humidity. Plates are read on a Synergy2 or equivalent reader (Biotek, Winooski VT) using an excitation of 540 nm and an emission of 600 nm. Data is analyzed using Prism software (GraphPad, San Diego, CA) to calculate IC50 values.

The subject of a further test is A375 cells. The experiment in a line: A375 Cell Proliferation Assay (2). The conditions noted are these: Homo sapiens, A-375. Format: cell-based. On the procedure: A375 Cell Proliferation Assay (2)
A375 cells (catalog (#CRL-1619) are obtained from the American Type Culture Collect (ATTC, Manassas, VA). Briefly, cells were grown in DMEM High Glucose supplemented with 10% characterized fetal bovine serum (Invitrogen, Carlsbad, CA) and 1% Penicillin/Streptomycin/L-Glutamine at 37° C., 5% CO2, and 95% humidity. Cells are expanded until reaching 70-95% confluency at which point they are sub-cultured or harvested for assay use. Using the Beckman Coulter Echo 650, a serial dilution of test compound is dispensed into a 384-well black clear bottom plate in triplicate. Six hundred twenty-five cells are added per well in 50 μL complete growth medium in the 384-well plate. Plates are incubated for 67-72 h at 37° C., 5% CO2, and 95% humidity. At the end of the incubation, 10 μL of a 440 μM solution of resazurin (Sigma, St. Louis, MO) in PBS is added to each well of the plate and plates are incubated for an additional 3-6 h at 37° C., 5% CO2, and 95% humidity. Plates are read on a Synergy2 or equivalent reader (Biotek, Winooski VT) using an excitation of 540 nm and an emission of 600 nm. Data is analyzed using Prism software (GraphPad, San Diego, CA) to calculate IC50 values.

For test [2], the target named is C-Raf kinase (SEQ. ID NO: 3) (Homo sapiens (Human), UniProt P04049, Y340D/Y341D). The experiment in a line: Biochemical Assay for C-Raf (2). The conditions noted are these: Table J, biochemical assay (2); read-out: CRAF (2). Here is the method: Biochemical Assay for C-Raf (2)
Activity of C-Raf kinase (SEQ. ID NO: 3) was determined spectroscopically using a coupled pyruvate kinase/lactate dehydrogenase assay that continuously monitors the ATP hydrolysis-dependent oxidation of NADH (e.g., Schindler et al., Science, 2000, 289, 1938-1942). Assays were conducted in 384-well plates (25 μL final volume) using 3.84 nM C-Raf (Eurofins), 1.5 units pyruvate kinase, 2.1 units lactate dehydrogenase, 1 mM phosphoenol pyruvate, 0.7 mM NADH, 50 nM MEK (SignalChem), and 1 mM ATP in assay buffer (100 mM Tris, pH 7.5, 15 mM MgCl2, 0.5 mM DTT, 0.1% octyl-glucoside, 0.002% (w/v) BSA, and 0.002% Triton X-100). Inhibition of C-Raf was measured by adding serial diluted test compound (final assay concentration of 1% DMSO). A decrease in absorption at 340 nm was monitored hourly for 4 h at 30° C. on a multi-mode microplate reader (BioTek). The reaction rate was calculated using the 2 to 3 h time frame. The reaction rate at each concentration of compound was converted to percent inhibition using controls (i.e., reaction with no test compound and reaction with a known inhibitor) and IC50 values were calculated by fitting a four-parameter sigmoidal curve to the data using Prism (GraphPad software).

Sequence of C-Raf kinase (SEQ. ID NO: 3) (P04049 307-648 Y340D/Y341D): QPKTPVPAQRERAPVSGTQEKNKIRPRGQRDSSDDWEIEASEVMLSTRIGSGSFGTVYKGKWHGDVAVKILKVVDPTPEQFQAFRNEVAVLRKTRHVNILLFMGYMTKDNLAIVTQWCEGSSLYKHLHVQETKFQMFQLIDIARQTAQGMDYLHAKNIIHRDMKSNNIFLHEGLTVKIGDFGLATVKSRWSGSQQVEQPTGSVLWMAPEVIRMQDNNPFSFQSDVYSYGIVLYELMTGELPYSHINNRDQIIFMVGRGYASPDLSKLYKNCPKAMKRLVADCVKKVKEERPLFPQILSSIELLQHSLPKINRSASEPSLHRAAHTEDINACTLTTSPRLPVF
Sequence of A-Raf kinase (SEQ. ID No: 1) (P10398 other isoform, or with tags, fused parts or gaps Y301D (already in the parent)/Y302D (already in the parent)): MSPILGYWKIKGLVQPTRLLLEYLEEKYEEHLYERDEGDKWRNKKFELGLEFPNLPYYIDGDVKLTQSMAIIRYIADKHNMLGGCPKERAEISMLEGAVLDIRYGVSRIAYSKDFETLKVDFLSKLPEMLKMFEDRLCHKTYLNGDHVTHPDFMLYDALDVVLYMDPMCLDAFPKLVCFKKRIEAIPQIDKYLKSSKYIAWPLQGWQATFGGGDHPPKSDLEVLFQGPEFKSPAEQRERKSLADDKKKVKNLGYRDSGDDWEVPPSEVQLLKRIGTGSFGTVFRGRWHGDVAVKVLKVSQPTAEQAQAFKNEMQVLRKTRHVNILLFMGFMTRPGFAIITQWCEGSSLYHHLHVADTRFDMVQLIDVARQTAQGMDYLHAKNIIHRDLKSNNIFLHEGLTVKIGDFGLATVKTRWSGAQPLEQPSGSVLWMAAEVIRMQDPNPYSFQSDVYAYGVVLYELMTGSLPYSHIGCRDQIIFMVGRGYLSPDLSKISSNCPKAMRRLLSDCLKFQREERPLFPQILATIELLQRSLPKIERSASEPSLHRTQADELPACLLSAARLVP

For `Cc1ccc(NC(=O)c2ccnc(C(C)(C)F)c2)cc1-c1ccnc(-c2ccnc(C(=O)NCCN(C)C)c2)c1` [Example 453], the pIC50 in test [1] is 5.00 to 6.00; with WM3928 cells, 6.30 to 7.00; in the test on A375 cells, 6.30 to 7.00; in test [2] it was ≥ 7.00.

Regarding `Cc1ccc(NC(=O)c2ccnc(C(C)(C)F)c2)cc1-c1ccnc(-c2ccnc(NC(=O)C3CC3)c2)c1` [Example 455], the pIC50 in test [1] was 6.30 to 7.00; in the test on WM3928 cells it was ≥ 7.00; in the test on A375 cells it was ≥ 7.00; in test [2], ≥ 7.00.
